Assay results: patent US11072581B2, “N-acyl-arylsulfonamide derivatives as aminoacyl-tRNA synthetase inhibitors” (Oxford Drug Design Limited, priority 2015, dated 2021)
Structures can show the parent of a compound that is named as a salt.

Assays:
[1] = biological target: T1, EcoLRS (leucyl-tRNA synthetase from Escherichia coli) (Escherichia coli, UniProt P07813); experiment: aaRS aminoacylation assay (ATP consumption), EcoLRS; type: biochemical; details: for % at single point concentration (inhibition ratio), EcoLRS: @50 μM compound
T1 construct: made in house; host or cells: Escherichia coli M15
T1 sequence (P07813 whole entry): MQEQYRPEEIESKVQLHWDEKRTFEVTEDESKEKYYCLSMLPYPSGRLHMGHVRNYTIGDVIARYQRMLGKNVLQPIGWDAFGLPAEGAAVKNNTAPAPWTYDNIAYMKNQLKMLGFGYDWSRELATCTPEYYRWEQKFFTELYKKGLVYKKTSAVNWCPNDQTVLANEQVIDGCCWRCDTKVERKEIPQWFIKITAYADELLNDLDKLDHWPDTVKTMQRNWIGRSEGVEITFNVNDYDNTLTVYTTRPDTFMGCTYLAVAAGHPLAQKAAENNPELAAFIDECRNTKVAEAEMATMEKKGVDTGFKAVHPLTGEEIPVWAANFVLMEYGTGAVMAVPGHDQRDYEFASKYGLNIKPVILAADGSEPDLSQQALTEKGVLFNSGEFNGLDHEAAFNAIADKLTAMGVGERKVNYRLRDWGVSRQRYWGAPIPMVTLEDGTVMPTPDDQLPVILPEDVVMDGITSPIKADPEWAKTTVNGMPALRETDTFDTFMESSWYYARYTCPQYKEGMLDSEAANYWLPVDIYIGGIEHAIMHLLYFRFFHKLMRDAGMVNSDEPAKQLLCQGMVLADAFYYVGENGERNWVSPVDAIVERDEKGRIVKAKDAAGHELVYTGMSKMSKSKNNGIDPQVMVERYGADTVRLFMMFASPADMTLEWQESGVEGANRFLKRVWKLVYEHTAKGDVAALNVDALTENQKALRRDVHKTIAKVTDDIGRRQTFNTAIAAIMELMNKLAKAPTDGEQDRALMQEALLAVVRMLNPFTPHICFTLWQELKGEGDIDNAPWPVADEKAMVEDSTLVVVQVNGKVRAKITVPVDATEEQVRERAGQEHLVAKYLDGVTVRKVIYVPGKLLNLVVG
Description: (§1) The compounds have been tested for antibacterial activity in vitro as aminoacyl-tRNA synthetases (aaRS) inhibitors following the following process.
(§2) Leucyl-, valyl- and isoleucyl-tRNA synthetases (LRS, VRS and IRS, respectively) from Escherichia coli (Eco) and Staphylococcus aureus (Sau).
(§3) Escherichia coli M15 cells transformed with plasmid pQE-60, or pQE-70, containing the open-reading frame sequence of one targeted aaRS were induced with 1 mM IPTG (Isopropyl β-D-1-thiogalactopyranoside) for 3 h at 37° C. Bacterial cells were harvested and lysed with 20 mM NaH2PO4 (pH 8.0), 200 mM NaCl, 10 mM imidazole and protease inhibitor cocktail (Roche). Pathogenic aaRS was purified by nickel affinity standard chromatography. Protein concentration was determined by spectrophotometry.
(§4) tRNA^Leu, tRNA^Val and tRNA^Ile from E. coli and S. aureus were transcribed in vitro for 4 h at 37° C. using T7 RNA polymerase. Transcription reaction contained 40 mM Tris-HCl (pH 8.0), 22 mM MgCl2, 1 mM spermidine, 5 mM DTT, 0.01% Triton X-100, 4 mM GTP, 4 mM ATP, 4 mM UTP, 4 mM CTP, 16 mM GMP, […] T7 RNA polymerase and 150 μg BstNI digested plasmid. Once finished, the reaction was applied on a 6% polyacrylamide-8 M urea denaturing gel to purify the transcribed tRNA and discard any impurities. Purified tRNA was quantified with Nanodrop 2000 (Thermo Scientific).
(§5) The aminoacylation reaction catalyzed by aminoacyl-tRNA synthetases (aaRS) takes place in two steps. In the first step, aaRS activates its cognate amino acid with ATP; and in the second step the activated amino acid is loaded to its corresponding tRNA. This reaction can be summarized as follows: ARS+aa+ATP=ARS-aa-AMP+PPi ARS-aa-AMP+tRNA=aa-tRNA+AMP+ARS [2] (ARS, Aminoacyl-tRNA synthetase; aa, amino acid; ARS-aa-AMP, enzyme-bound to aminoacyl-adenylate; aa-tRNA, aminoacyl-tRNA).
(§6) The activity of the pathogenic aaRSs was monitored by measuring the ATP consumption rate, since this consumption is directly proportional to the activity of the aaRS. If the tested compound, at a single point concentration of 50 μM, is inhibiting the aminoacylation reaction, there is a decrease in the ATP consumption, compared to the control reaction without compound, allowing the calculation of an inhibition ratio.
(§7) When the inhibition ratio for a given compound was above 80%, IC50 determination was performed with the same enzymatic assay (using the commercial kit Kinase RR from BioThema AB, Sweden) in the presence of serial dilutions of inhibitor. Known inhibitors of LRS, VRS or IRS were used as a positive control of the assay. The IC50 was calculated based on nonlinear regression analysis.

[2] = biological target: T2, EcoIRS (isoleucyl-tRNA synthetase from Escherichia coli) (Escherichia coli, UniProt P00956); experiment: aaRS aminoacylation assay (ATP consumption), EcoIRS; type: biochemical; details: i.a. = inactive at a concentration below 50 uM
T2 construct: made in house; host or cells: Escherichia coli M15
T2 sequence (P00956 whole entry): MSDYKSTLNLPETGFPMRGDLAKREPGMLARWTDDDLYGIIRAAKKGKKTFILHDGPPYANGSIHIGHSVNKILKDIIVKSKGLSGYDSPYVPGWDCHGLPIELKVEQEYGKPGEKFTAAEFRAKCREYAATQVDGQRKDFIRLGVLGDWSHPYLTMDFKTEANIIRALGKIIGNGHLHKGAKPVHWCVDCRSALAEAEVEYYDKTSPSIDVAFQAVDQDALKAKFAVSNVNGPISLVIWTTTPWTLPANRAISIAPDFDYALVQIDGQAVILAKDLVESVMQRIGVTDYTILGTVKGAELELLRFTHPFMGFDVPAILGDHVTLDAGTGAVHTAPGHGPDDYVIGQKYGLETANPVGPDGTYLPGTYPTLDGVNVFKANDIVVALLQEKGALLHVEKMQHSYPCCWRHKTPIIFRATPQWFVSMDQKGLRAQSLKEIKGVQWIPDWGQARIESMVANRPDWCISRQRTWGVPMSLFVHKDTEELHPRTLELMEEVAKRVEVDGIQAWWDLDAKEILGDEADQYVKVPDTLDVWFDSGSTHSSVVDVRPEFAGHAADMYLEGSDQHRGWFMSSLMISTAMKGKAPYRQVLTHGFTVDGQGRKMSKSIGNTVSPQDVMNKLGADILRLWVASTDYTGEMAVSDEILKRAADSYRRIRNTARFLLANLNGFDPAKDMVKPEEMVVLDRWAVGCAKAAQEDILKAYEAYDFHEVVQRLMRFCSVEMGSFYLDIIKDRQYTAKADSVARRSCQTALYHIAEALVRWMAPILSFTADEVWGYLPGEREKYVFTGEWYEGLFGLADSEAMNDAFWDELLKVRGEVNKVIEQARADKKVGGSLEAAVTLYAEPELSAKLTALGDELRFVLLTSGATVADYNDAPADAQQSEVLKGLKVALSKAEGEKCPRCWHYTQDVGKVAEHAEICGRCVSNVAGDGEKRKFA
Description: as §1, §2, §3, §4, §5, §6, §7

[3] = biological target: T3, EcoVRS (valyl-tRNA synthetase from Escherichia coli) (Escherichia coli, UniProt P07118); experiment: aaRS aminoacylation assay (ATP consumption), EcoVRS; type: biochemical; details: i.a. = inactive at a concentration below 50 uM
T3 construct: made in house; host or cells: Escherichia coli M15
T3 sequence (P07118 whole entry): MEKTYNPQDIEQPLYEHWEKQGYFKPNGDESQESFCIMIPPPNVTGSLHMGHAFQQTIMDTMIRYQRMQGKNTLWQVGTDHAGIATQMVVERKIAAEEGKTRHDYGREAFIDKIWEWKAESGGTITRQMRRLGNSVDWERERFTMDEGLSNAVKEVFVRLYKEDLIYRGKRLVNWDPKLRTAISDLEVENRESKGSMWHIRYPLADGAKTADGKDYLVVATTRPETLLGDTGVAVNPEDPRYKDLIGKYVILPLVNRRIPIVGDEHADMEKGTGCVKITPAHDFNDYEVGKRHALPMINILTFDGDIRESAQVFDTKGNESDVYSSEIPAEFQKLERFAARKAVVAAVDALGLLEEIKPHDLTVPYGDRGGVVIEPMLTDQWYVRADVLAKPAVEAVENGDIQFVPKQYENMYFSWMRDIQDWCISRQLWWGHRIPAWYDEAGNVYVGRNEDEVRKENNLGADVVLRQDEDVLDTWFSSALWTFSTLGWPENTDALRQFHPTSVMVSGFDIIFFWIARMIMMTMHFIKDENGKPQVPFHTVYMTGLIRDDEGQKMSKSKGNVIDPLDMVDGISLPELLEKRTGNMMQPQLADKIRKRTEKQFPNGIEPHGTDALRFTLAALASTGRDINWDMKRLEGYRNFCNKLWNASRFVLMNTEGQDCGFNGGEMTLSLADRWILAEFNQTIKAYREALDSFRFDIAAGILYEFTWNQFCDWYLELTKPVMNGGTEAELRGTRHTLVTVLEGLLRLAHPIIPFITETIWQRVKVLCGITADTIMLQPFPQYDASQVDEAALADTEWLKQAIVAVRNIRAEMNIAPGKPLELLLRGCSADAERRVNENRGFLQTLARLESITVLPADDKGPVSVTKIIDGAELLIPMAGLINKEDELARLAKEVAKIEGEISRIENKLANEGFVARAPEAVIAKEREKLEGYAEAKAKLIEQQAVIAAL
Description: as §1, §2, §3, §4, §5, §6, §7

[4] = biological target: T4, SauLRS (leucyl-tRNA synthetase from Staphylococcus aureus) (Staphylococcus aureus, UniProt Q2FXH2); experiment: aaRS aminoacylation assay (ATP consumption), SauLRS; type: biochemical; details: i.a. = inactive at a concentration below 50 uM
T4 construct: made in house; host or cells: Escherichia coli M15
T4 sequence (Q2FXH2 1-805): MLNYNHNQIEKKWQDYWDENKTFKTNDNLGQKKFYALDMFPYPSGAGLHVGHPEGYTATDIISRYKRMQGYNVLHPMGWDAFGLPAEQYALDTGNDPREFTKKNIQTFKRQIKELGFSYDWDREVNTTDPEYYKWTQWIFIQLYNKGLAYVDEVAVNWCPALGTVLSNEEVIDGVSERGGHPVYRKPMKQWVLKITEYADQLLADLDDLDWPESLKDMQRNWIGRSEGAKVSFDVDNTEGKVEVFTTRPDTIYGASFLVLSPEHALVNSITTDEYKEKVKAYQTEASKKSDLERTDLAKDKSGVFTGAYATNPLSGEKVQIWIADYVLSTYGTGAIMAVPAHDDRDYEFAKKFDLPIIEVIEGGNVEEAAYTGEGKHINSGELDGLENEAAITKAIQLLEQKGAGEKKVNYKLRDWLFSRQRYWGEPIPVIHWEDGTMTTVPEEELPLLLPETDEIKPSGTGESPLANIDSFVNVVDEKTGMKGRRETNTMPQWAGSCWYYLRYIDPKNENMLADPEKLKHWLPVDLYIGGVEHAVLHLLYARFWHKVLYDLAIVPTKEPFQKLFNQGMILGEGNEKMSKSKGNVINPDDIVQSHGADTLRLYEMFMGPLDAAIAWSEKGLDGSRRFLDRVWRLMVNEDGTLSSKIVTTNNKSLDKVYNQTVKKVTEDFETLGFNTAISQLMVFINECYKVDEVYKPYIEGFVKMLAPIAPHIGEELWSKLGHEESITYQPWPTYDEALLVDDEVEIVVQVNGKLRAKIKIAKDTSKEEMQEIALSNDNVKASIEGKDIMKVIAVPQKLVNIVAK
Description: as §1, §2, §3, §4, §5, §6, §7

[5] = biological target: T5, SauVRS (valyl-tRNA synthetase from Staphylococcus aureus) (Staphylococcus aureus, UniProt Q2FXR8); experiment: aaRS aminoacylation assay (ATP consumption), SauVRS; type: biochemical; details: i.a. = inactive at a concentration below 50 uM
T5 construct: made in house; host or cells: Escherichia coli M15
T5 sequence (Q2FXR8 1-876): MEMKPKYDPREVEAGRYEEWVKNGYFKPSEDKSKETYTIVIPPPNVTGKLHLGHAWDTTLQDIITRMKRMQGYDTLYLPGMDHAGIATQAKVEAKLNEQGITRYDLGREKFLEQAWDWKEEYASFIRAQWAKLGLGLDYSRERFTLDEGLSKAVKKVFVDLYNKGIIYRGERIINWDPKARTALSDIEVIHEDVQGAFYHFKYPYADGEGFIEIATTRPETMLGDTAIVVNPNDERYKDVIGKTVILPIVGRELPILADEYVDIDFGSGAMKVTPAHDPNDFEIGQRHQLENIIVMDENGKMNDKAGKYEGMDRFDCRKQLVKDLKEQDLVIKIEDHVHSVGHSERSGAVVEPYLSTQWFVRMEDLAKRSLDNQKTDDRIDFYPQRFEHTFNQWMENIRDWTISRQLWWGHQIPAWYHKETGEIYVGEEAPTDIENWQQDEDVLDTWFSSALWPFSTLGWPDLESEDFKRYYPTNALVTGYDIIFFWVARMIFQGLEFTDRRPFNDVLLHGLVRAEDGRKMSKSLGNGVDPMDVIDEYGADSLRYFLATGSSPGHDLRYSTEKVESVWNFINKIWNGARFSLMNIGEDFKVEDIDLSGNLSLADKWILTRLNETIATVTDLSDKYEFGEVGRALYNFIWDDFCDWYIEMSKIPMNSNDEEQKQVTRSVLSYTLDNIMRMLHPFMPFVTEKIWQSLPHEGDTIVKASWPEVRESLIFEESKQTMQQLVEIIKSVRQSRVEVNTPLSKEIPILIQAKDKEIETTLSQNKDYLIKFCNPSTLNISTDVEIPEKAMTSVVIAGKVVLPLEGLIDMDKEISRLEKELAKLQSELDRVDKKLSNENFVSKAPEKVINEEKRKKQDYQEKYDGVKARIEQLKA
Description: as §1, §2, §3, §4, §5, §6, §7

CC(C)C[C@H](N)C(=O)NS(=O)(=O)c1cccc2c(N(C)C)cccc12 (as salt: hydrochloride) [Compound 5.16, (S)-2-amino-N-((5-(dimethylamino)naphthalen-1-yl)sulfonyl)-4-methylpentanamide hydrochloride]
melting point: 178 to 180 °C

CC(C)C[C@H](N)C(=O)NS(=O)(=O)c1cccc2cc(C(N)=O)ncc12 (as salt: salt) [Compound 5.24, 8-(N-(L-Leucyl)sulfamoyl)isoquinoline-3-carboxamide]
melting point: 222.9 °C

CC(C)C[C@H](N)C(=O)NS(=O)(=O)c1ccc(Br)c2ccncc12 (as salt: trifluoroacetate) [Compound 5.22]
melting point: 137 to 139 °C

CC(C)C[C@H](N)C(=O)NS(=O)(=O)c1cccc2c1CNCC2 (as salt: trifluoroacetate) [Compound 5.26, (S)-2-amino-4-methyl-N-((1,2,3,4-tetrahydroisoquinolin-8-yl)sulfonyl) pentanamide trifluoroacetate]
melting point: 90 to 92 °C

CC(C)C[C@H](N)C(=O)NS(=O)(=O)c1ccc(F)cc1 [Compound 5.8]
melting point: 235 to 236 °C

COc1ccc(S(=O)(=O)NC(=O)[C@@H](N)CC(C)C)c2ccccc12 [Compound 5.18]
melting point: 253 to 255 °C

CC(C)C[C@H](N)C(=O)NS(=O)(=O)c1ccccn1 [Compound 5.20]
melting point: 203 to 205 °C

CC(C)C[C@H](N)C(=O)NS(=O)(=O)c1ccc(O)c2ccccc12 [Compound 5.23]
melting point: 250 to 252 °C

Cc1cc(-c2cccc(S(=O)(=O)NC(=O)[C@@H](N)C3CCCCC3)c2)nc(N)n1 [Compound 5.32]
IC50 [1]: 38 µM | IC50 EcoIRS [2]: i.a | IC50 EcoVRS [3]: i.a | IC50 SauLRS [4]: i.a | IC50 SauVRS [5]: i.a

CC(C)C[C@H](N)C(=O)NS(=O)(=O)c1cccc(-c2cc(OC(C)C)nc(N)n2)c1 [Compound 5.51]
% at single point concentration (inhibition ratio), EcoLRS [1]: 102%@50 μM

CC(C)C[C@H](N)C(=O)NS(=O)(=O)c1cccc(-c2cc(Oc3ccccc3)nc(N)n2)c1 [Compound 5.52]
% at single point concentration (inhibition ratio), EcoLRS [1]: 104%@50 μM
